From patent US9273057B2 (Bristol-Myers Squibb Company, priority 2012, dated 2016)

Molecular target: CK2A1 (CK2α/β) (Homo sapiens, UniProt P68400)
Experiment: CK2 kinase assay, CK2A1 (CK2α/β)
Assay type: biochemical
Conditions: Table A; read-out: CK2A1 (CK2α/β) (IC50)

Chain of CK2A1 (CK2α/β) (P68400 whole entry, species assumed): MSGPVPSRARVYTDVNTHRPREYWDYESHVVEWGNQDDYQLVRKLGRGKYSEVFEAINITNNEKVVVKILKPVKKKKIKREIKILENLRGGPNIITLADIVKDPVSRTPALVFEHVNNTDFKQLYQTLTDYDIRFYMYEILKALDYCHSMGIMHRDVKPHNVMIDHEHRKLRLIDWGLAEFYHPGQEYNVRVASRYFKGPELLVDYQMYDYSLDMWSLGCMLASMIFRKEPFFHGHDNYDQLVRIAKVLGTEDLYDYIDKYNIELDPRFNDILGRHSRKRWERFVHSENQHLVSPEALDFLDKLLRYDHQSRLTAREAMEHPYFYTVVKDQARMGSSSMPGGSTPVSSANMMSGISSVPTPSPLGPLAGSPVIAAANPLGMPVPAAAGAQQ
Chain of CK2A1 (CK2α/β) (P67870 whole entry partner, species assumed): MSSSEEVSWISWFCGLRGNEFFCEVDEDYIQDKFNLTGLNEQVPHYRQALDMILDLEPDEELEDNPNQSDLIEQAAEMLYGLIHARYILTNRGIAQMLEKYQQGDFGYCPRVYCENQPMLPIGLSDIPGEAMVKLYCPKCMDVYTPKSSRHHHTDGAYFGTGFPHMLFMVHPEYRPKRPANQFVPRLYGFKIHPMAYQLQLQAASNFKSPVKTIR

Row | SMILES | IC50 [nM]
1 | CC(=O)N1CC(N2CCN(c3cc(C#N)cc(Nc4nc(NC5CC5)c5ncc(C#N)n5n4)c3Cl)C(=O)C2)C1 [Example 633, 2-((3-(4-(1-acetylazetidin-3-yl)-2-oxopiperazin-1-yl)-2-chloro-5-cyanophenyl)amino)-4-(cyclopropylamino)imidazo[2,1-f][1,2,4]triazine-7-carbonitrile] | 1.2
2 | CCNc1nc(Nc2cc(C#N)cc(N3CC[C@@H]4[C@@H](C3)OC(=O)N4[C@H]3CCOC3)c2Cl)nn2c(C#N)cnc12 (single isomer, unassigned) [Example 842] | 2.05
3 | N#Cc1cnc2c(NC3CC3)nc(Nc3cc(C(F)F)cc(N4CCN(C5CCOC5)CC4)c3Cl)nn12 (racemic) [Example 265, (+/−) 2-(2-chloro-5-(difluoromethyl)-3-(4-(tetrahydrofuran-3-yl)piperazin-1-yl)phenylamino)-4-(cyclopropylamino)imidazo[1,2-f][1,2,4]triazine-7-carbonitrile] | 3.49
4 | CC(c1cc(C#N)cc(Nc2nc(NC3CC3)c3ncc(C#N)n3n2)c1Cl)N1CCN(S(C)(=O)=O)CC1 (racemic) [Example 678] | 1.87
5 | N#Cc1cc(Nc2nc(NC3CC3)c3ncc(C#N)n3n2)c(Cl)c(N2CCN(C3CN(C(=O)C4CCCO4)C3)CC2)c1 (stereo not shown) [Example 517, 2-[(2-chloro-5-cyano-3-{4-[1-(oxolane-2-carbonyl)azetidin-3-yl]piperazin-1-yl}phenyl)amino]-4-(cyclopropylamino)imidazo[2,1-f][1,2,4]triazine-7-carbonitrile] | 3.66
6 | N#Cc1cc(Nc2nc(NC3CC3)c3ncc(C#N)n3n2)c(Cl)c(N2CC[C@H]3NC(=O)CO[C@@H]3C2)c1 (racemic) [Example 310, (+/−)-2-((2-chloro-5-cyano-3-((4aR,8aR)-2-oxohexahydro-1H-pyrido[3,4-b][1,4]oxazin-6(7H)-yl)phenyl)amino)-4-(cyclopropylamino)imidazo[2,1-f][1,2,4]triazine-7-carbonitrile, 2HCl] | 2.87
7 | CCNc1nc(Nc2cc(C#N)cc(N3CCN([C@H]4C[C@@H](O)C4)CC3)c2Cl)nn2c(C#N)cnc12 [Example 610, 2-[(2-chloro-5-cyano-3-{4-[(1a,3s)-3-hydroxycyclobutyl]piperazin-1-yl}phenyl)amino]-4-(ethylamino)imidazo[2,1-f][1,2,4]triazine-7-carbonitrile] | 1.08
8 | CC(=O)N[C@@H]1CN(c2cc(C#N)cc(Nc3nc(NC4CC4)c4ncc(C#N)n4n3)c2Cl)C[C@H]1O (racemic) [Example 10, (+/−) N-((3R,4R)-1-(2-chloro-5-cyano-3-((7-cyano-4-(cyclopropylamino)imidazo [2,1-f][1,2,4]triazin-2-yl)amino)phenyl)-4-hydroxy-3-pyrrolidinyl)acetamide] | 0.51
9 | CCNc1nc(Nc2cc(C#N)cc(C3CCN(C4COC4)CC3)c2Cl)nn2c(C#N)cnc12 [Example 349, 2-((2-chloro-5-cyano-3-(1-(oxetan-3-yl)piperidin-4-yl)phenyl)amino)-4-(ethylamino)imidazo[2,1-f][1,2,4]triazine-7-carbonitrile] | 2.75
10 | COC(=O)NC1CCN(c2cc(C#N)cc(Nc3nc(NC4CC4)c4ncc(C#N)n4n3)c2Cl)C[C@@H]1N(C)CC#N (stereo in doubt) [Example 764, methyl N-[(3S,4S)-1-(2-chloro-5-cyano-3-{[7-cyano-4-(cyclopropylamino)imidazo [2,1-f][1,2,4]triazin-2-yl]amino}phenyl)-3-[(cyanomethyl)(methyl)amino]piperidin-4-yl]carbamate] | 2
11 | CCNc1nc(Nc2cc(C#N)cc(N3CC[C@@H](NC(=O)OC)[C@@H](NC4COC4)C3)c2Cl)nn2c(C#N)cnc12 [Example 747, methyl ((3S,4R)-1-(2-chloro-5-cyano-3-((7-cyano-4-(ethylamino)imidazo[2,1-f][1,2,4]triazin-2-yl)amino)phenyl)-3-(oxetan-3-ylamino)piperidin-4-yl)carbamate] | 1.62
12 | CN1CCC2(CCN(c3cc(C#N)cc(Nc4nc(NC5CC5)c5ncc(C#N)n5n4)c3Cl)CC2)C1 (racemic) [Example 27, (+/−) 2-((2-chloro-5-cyano-3-(2-methyl-2,8-diazaspiro[4.5]dec-8-yl)phenyl)amino)-4-(cyclopropylamino)imidazo [2,1-f][1,2,4]triazine-7-carbonitrile] | 0.87
13 | CN(C)Cc1cc(C#N)cc(Nc2nc(NC3CC3)c3ncc(C#N)n3n2)c1Cl [Example 667, 2-((2-chloro-5-cyano-3-((dimethylamino)methyl)phenyl)amino)-4-(cyclopropylamino)imidazo[2,1-f][1,2,4]triazine-7-carbonitrile] | 0.65
14 | COC(=O)Nc1cc(Nc2nc(NC3CC3)c3ncc(C#N)n3n2)c(Cl)c(N2CC(N3CCN(C)CC3)C2)c1 [Example 203, methyl (4-chloro-3-((7-cyano-4-(cyclopropylamino)imidazo[2,1-f][1,2,4]triazin-2-yl)amino)-5-(3-(4-methyl-1-piperazinyl)-1-azetidinyl)phenyl)carbamate] | 1.79
15 | C[C@@H]1OCC[C@@H]1NC1CCN(c2cc(C#N)cc(Nc3nc(NC4CC4)c4ncc(C#N)n4n3)c2Cl)CC1 (racemic) [Example 123, (+/−) 2-((2-chloro-5-cyano-3-(4-(((2S,3S)-2-methyltetrahydro-3-furanyl)amino)-1-piperidinyl)phenyl)amino)-4-(cyclopropylamino)imidazo [2,1-f][1,2,4]triazine-7-carbonitrile] | 0.55
16 | COC(=O)N[C@@H]1CCN(c2cc(C#N)cc(Nc3nc(NC4CC4)c4ncc(C#N)n4n3)c2Cl)C[C@H]1OC(=O)C1(N)CC1 [Example 194, (3R,4R)-1-(2-chloro-5-cyano-3-((7-cyano-4-(cyclopropylamino)imidazo[2,1-f][1,2,4]triazin-2-yl)amino)phenyl)-4-((methoxycarbonyl)amino)-3-piperidinyl 1-aminocyclopropanecarboxylate] | 1.25
17 | N#Cc1cc(Nc2nc(NC3CC3)c3ncc(C#N)n3n2)c(Cl)c(N2CCN(C3(CO)COC3)CC2)c1 [Example 538, 2-((2-chloro-5-cyano-3-(4-(3-(hydroxymethyl)oxetan-3-yl)piperazin-1-yl)phenyl)amino)-4-(cyclopropylamino)imidazo[2,1-f][1,2,4]triazine-7-carbonitrile] | 2.1
18 | CN1CCN(C(CO)CCc2cc(C#N)cc(Nc3nc(NC4CC4)c4ncc(C#N)n4n3)c2Cl)CC1 (stereo not shown) [Example 723, 2-({2-chloro-5-cyano-3-[4-hydroxy-3-(4-methylpiperazin-1-yl)butyl]phenyl}amino)-4-(cyclopropylamino)imidazo [2,1-f][1,2,4]triazine-7-carbonitrile] | 1.92
19 | CN1C(=O)CNC12CCN(c1cc(C#N)cc(Nc3nc(NC4CC4)c4ncc(C#N)n4n3)c1Cl)CC2 (racemic) [Example 785, (+/−)-2-((2-chloro-5-cyano-3-(1-methyl-2-oxo-1,4,8-triazaspiro[4.5]decan-8-yl)phenyl)amino)-4-(cyclopropylamino)imidazo[2,1-f][1,2,4]triazine-7-carbonitrile] | 6.67
20 | N#Cc1cc(Nc2nc(NC3CC3)c3ncc(C#N)n3n2)c(Cl)c(C2CCN(C3COC3)CC2)c1 [Example 210, 2-((2-chloro-5-cyano-3-(1-(3-oxetanyl)-4-piperidinyl)phenyl)amino)-4-(cyclopropylamino)imidazo[2,1-f][1,2,4]triazine-7-carbonitrile] | 0.71
21 | CC(C)(C)C(=O)N1CCC(c2cc(C#N)cc(Nc3nc(NC4CC4)c4ncc(C#N)n4n3)c2Cl)CC1 [Example 234, 2-((2-chloro-5-cyano-3-(1-(2,2-dimethylpropanoyl)-4-piperidinyl)phenyl)amino)-4-(cyclopropylamino)imidazo[2,1-f][1,2,4]triazine-7-carbonitrile] | 1.6
22 | N#Cc1cnc2c(NC3CC3)nc(Nc3cc(C(F)F)cc(N4CCN(C5(CCO)COC5)CC4)c3Cl)nn12 [Example 270, 2-((2-chloro-5-(difluoromethyl)-3-(4-(3-(2-hydroxyethyl)-3-oxetanyl)-1-piperazinyl)phenyl)amino)-4-(cyclopropylamino)imidazo[2,1-f][1,2,4]triazine-7-carbonitrile] | 0.82
23 | CCNc1nc(Nc2cc(C#N)cc(N3CCC(N(C)C4COC4)CC3)c2Cl)nn2c(C#N)cnc12 [Example 365, 2-((2-chloro-5-cyano-3-(4-(methyl(oxetan-3-yl)amino)piperidin-1-yl)phenyl)amino)-4-(ethylamino)imidazo[2,1-f][1,2,4]triazine-7-carbonitrile] | 3.28
24 | CCNc1nc(Nc2cc(C#N)cc(N3C[C@H](NC(=O)OC)[C@@H](OC)C3)c2Cl)nn2c(C#N)cnc12 [Example 333, methyl ((3S,4S)-1-(2-chloro-5-cyano-3-((7-cyano-4-(ethylamino)imidazo [2,1-f][1,2,4]triazin-2-yl)amino)phenyl)-4-methoxy-3-pyrrolidinyl)carbamate] | 0.46
25 | CC(=O)N1CCC2(CCN(c3cc(C#N)cc(Nc4nc(NC5CC5)c5ncc(C#N)n5n4)c3Cl)CC2)C1 [Example 786, 2-((3-(2-acetyl-2,8-diazaspiro[4.5]decan-8-yl)-2-chloro-5-cyanophenyl)amino)-4-(cyclopropylamino)imidazo[2,1-f][1,2,4]triazine-7-carbonitrile] | 1.41
26 | CN(CCNC1COC1)c1cc(Cl)c(Nc2nc(NC3CC3)c3ncc(C#N)n3n2)cc1C#N [Example 413, 2-((2-chloro-5-cyano-4-(methyl(2-(oxetan-3-ylamino)ethyl)amino)phenyl)amino)-4-(cyclopropylamino)imidazo[2,1-f][1,2,4]triazine-7-carbonitrile] | 0.39
27 | CCN1CCN(c2cc(C#N)cc(Nc3nc(NC4CC4)c4ncc(C#N)n4n3)c2Cl)C(=O)C1 [Example 636, 2-((2-chloro-5-cyano-3-(4-ethyl-2-oxopiperazin-1-yl)phenyl)amino)-4-(cyclopropylamino)imidazo[2,1-f][1,2,4]triazine-7-carbonitrile] | 1
28 | CC(C)(O)C1CCN(c2cc(C#N)cc(Nc3nc(NC4CC4)c4ncc(C#N)n4n3)c2Cl)CC1 [Example 16, 2-((2-chloro-5-cyano-3-(4-(1-hydroxy-1-methylethyl)-1-piperidinyl)phenyl)amino)-4-(cyclopropylamino)imidazo [2,1-f][1,2,4]triazine-7-carbonitrile] | 1
